Assays:
[1] = CLint in NADPH-supplemented human liver microsomes; conditions: human; for microsomal CLint at 1 µM: pH 7.4; for CLint scaled at 1 µM: pH 7.4, NADPH_HLM_scaled_CLint,u
Procedure: (§1) Calculation and scaling of CLint,u was done using the equation below and 45 mg of microsomal protein per gram of liver. HLMCLint,u=ln2/x1/t1/2(min)xmLincubation/mgmicrosomalproteinx45mgmicrosomalprotein/gliverx21gliver/kg/Fuinc

rat hepatocytes = assay: Free fraction in rat hepatocytes as surrogate for HH, equilibrium dialysis; type: in vitro ADME; conditions: fraction unbound, measured or estimated by in silico models of Fuinc
[2] = LogD pH 7.4, octanol/phosphate buffer; conditions: octanol/phosphate buffer, pH 7.4
[3] = Free fraction in HLM incubation, equilibrium dialysis; type: in vitro ADME, human; conditions: fraction unbound, measured or estimated by in silico models of Fuinc
[4] = CLint in NADH-supplemented human liver microsomes; conditions: human, pH 7.4
Procedure: as §1

[5] = Intrinsic permeability in Caco-2 cells with efflux inhibited; conditions: human, Caco-2
in vitro = conditions: human, hepatocytes; for hepatocyte CLint at 1 µM / hepatocyte CLint: both; for CLint scaled at 1 µM / CLint scaled: HH_scaled_CLint,u
Procedure: Cryopreserved HH prepared from a mixed-gender pool of twenty donors (product X008000, lot EEO, BIOIVT), ten-donors (product S01205, lot MTJ, BIOIVT), ten donors (product S01205 lot LYB, BIOIVT) were utilised in the experiments. Cryopreserved HH were rapidly thawed in a water bath set at 37 °C and added to Leibovitz media that had been pre-warmed in the water bath. The suspension of cells was mixed gently and centrifuged at 40 × g for 4 min at room temperature. Excess media was removed, and the cells were re-suspended in 5 mL of fresh Leibovitz media. The cells were counted using an automated cell counter (Cellometer).

[6] = human liver microsomes, Fig. 4a,d
[7] = HH_CLint, 1 µM, single determination, Fig. 4a

Row | hepatocyte CLint at 1 µM (in vitro) [µL/min/1e6 cells] | CLint scaled at 1 µM (in vitro) [mL/min/kg] | SMILES | microsomal CLint at 1 µM ([1]; human liver microsomes + NADPH) [µL/min/mg] | CLint scaled at 1 µM [1, 6] [mL/min/kg] | fu_ratHH (rat hepatocytes) | logD [2] | fu_HLM [3] | microsomal CLint at 1 µM ([4]; human liver microsomes + NADH) [µL/min/mg] | CLint scaled at 1 µM ([4]; human liver microsomes) [mL/min/kg] | Papp at 2 h, 10 µM [5] [×10⁻⁶ cm/s] | hepatocyte CLint (in vitro) [µL/min/1e6 cells] | CLint scaled (in vitro; Fig. 4a) [mL/min/kg] | CLint scaled at 1 µM ([1]; microsomes) [mL/min/kg] | CLint scaled at 1 µM ([4]; microsomes) [mL/min/kg] | hepatocyte CLint (in vitro; [7]) [µL/min/1e6 cells] | microsomal CLint at 1 µM ([1]; microsomes) [µL/min/mg] | CLint scaled at 1 µM ([1]; microsomes, Fig. 4a,d) [mL/min/kg] | microsomal CLint at 1 µM ([4]; microsomes) [µL/min/mg]
1 | 2.92 | 10.2 | CCN(C(=O)c1cc(F)ccc1Oc1cncnc1N1CC2(CCN(C[C@H]3CC[C@H](NS(=O)(=O)CC)CC3)CC2)C1)C(C)C [Revumenib] | 161 | 186 | 0.721 | 1.41 | 0.819 | 34.9 | 40.2 | 1.65 |  |  |  |  |  |  |  | 
2 |  |  | COCCc1ccc(OCC(O)CNC(C)C)cc1 (stereo not drawn) [Metoprolol] | 4.05 | 4.08 | 0.923 | < -0.19 | 0.939 | 3 | 3.02 | 19.5 | 3.11 | 8.49 |  |  |  |  |  | 
3 |  |  | CCCc1nn(C)c2c(=O)[nH]c(-c3cc(S(=O)(=O)N4CCN(C)CC4)ccc3OCC)nc12 [Sildenafil] | 134 | 199 | 0.633 | 2.74 | 0.638 | 29.1 | 43.1 | 66 | 14.5 | 57.7 |  |  |  |  |  | 
4 |  |  | CC[C@@H]1[C@H](F)C(=O)N[C@@H]1COc1nccc2cc(C(N)=O)c(OC)cc12 [Zimlovisertib] |  |  | 0.817 | 1.98 | 0.817 |  |  | 31.7 |  | 18 | 46.5 | 8.09 | 5.84 |  |  | 
5 | 4.29 | 20.6 | O=C(O)c1cc(-c2ccc(F)cc2F)ccc1O [Diflunisal] |  |  | 0.525 | 0.574 | 0.81 |  |  | 129 |  |  |  | 3.5 |  | 5.28 | 6.16 | 3
6 |  |  | C=CCN1CC[C@]23c4c5ccc(O)c4O[C@H]2C(=O)CC[C@@]3(O)[C@H]1C5 [Naloxone] |  |  | 0.895 |  | 0.969 |  |  | 11.9 |  | 83.2 |  | 2.93 | 29.6 | 7.57 | 7.38 | 3
7 | 6.69 | 26.2 | CN(C)CCCOc1nn(Cc2ccccc2)c2ccccc12 [Benzydamine] | 21.1 | 56 | 0.643 | 2.25 | 0.356 | 3 | 7.96 | 27.4 |  |  |  |  |  |  |  | 
8 |  |  | C=CCn1c(=O)c2cnc(Nc3ccc(N4CCN(C)CC4)cc3)nc2n1-c1cccc(C(C)(C)O)n1 [Adavosertib] | 72.3 | 165 | 0.415 | 2.37 | 0.415 | 14.6 | 33.2 | 12.7 | 1.97 | 12 |  |  |  |  |  | 
9 |  |  | O=C(c1ccc(F)cc1)C1CCN(CCn2c(=O)[nH]c3ccccc3c2=O)CC1 [Ketanserin] | 15.8 | 27 | 0.659 |  | 0.551 | 5.6 | 9.6 | 32.7 | 19.5 | 74.6 |  |  |  |  |  | 

Row | SMILES | hepatocyte CLint at 1 µM (in vitro) [µL/min/1e6 cells] | CLint scaled at 1 µM (in vitro) [mL/min/kg] | microsomal CLint at 1 µM ([1]; human liver microsomes + NADPH) [µL/min/mg] | CLint scaled at 1 µM [1, 6] [mL/min/kg] | fu_ratHH (rat hepatocytes) | logD [2] | fu_HLM [3] | microsomal CLint at 1 µM ([4]; human liver microsomes + NADH) [µL/min/mg] | CLint scaled at 1 µM ([4]; human liver microsomes) [mL/min/kg] | Papp at 2 h, 10 µM [5] [×10⁻⁶ cm/s] | hepatocyte CLint (in vitro) [µL/min/1e6 cells] | CLint scaled (in vitro; Fig. 4a) [mL/min/kg] | CLint scaled at 1 µM ([1]; microsomes) [mL/min/kg] | CLint scaled at 1 µM ([4]; microsomes) [mL/min/kg] | hepatocyte CLint (in vitro; [7]) [µL/min/1e6 cells] | microsomal CLint at 1 µM ([1]; microsomes) [µL/min/mg] | CLint scaled at 1 µM ([1]; microsomes, Fig. 4a,d) [mL/min/kg] | microsomal CLint at 1 µM ([4]; microsomes) [µL/min/mg]
10 | CCN(CC)Cc1cc(Nc2ccnc3cc(Cl)ccc23)ccc1O [Amodiaquine] | 99 | 2470 | 379 | 3540 | 0.101 | 2.9 | 0.101 | 217 | 2030 | 15.1 |  |  |  |  |  |  |  | 

From article PMC12592420, “A mismatch in enzyme-redox partnerships underlies divergent cytochrome P450 activities between human hepatocytes and microsomes” (Communications Biology, 2025)
